In patent US6787566B2, “Breakers of advanced glycation endproducts” (City of Hope, priority 1999, dated 2004):

How the values were obtained:
[1] = target: T1, cross-linked collagen-AGE-BSA (Rattus norvegicus, UniProt P02454+P02466); assay: AGE-BSA-collagen ELISA: cleavage of glycated BSA cross-linked to collagen; assay type: biochemical; settings: for AGE-breaking activity (cleavage of cross-linked collagen-AGE-BSA), in words: 0.1-10 mM final concentration, FIGS. 1A and 1C; for Concentration dependence of AGE-BSA-collagen crosslink breaking, in words: FIGS. 1A-C
T1 construct: purchased Biocoat (Collaborative Research, Bedford, Mass.) for the collagen-coated plates; Sigma Chemical co. for bovine serum albumin
Method: In vitro evaluation of the ability of the AGE-breaker compounds to cleave and break cross-linking of glycated BSA (AGE-BSA) (prepared as described (Rahbar et al., 1999)) to the rat-tail-tendon-collagen was by a special ELISA (Vasan et al., 1996). The rat-tail-tendon-collagen coated plates were first blocked first with 300 μL of Superblock blocking buffer (Pierce Chemicals, Rockford, Ill.) for one hour. The blocking solution was removed from the wells by washing the plates twice with PBS-0.05% Tween 20 (PBS-T) using a Dynatech ELISA-plate washer. Cross-linking of various concentrations of AGE-BSA (0, 0.01, 0.05, 0.1, 0.25, 0.50, and 1.0 μg per well) to rat-tail-collagen coated plates was performed without the testing compound, and the plates were incubated for 5 hours at 37° C. After washing the wells three times with PBS-T to remove the unattached AGE-BSA, test concentrations of the compound (50 μL/well) dissolved in PBS were added to wells in triplicate and incubation continued at 37° C. overnight. After washing with PBS-T, the amount of BSA remaining attached to the tail collagen plate was then quantified by addition of rabbit anti-BSA polyclonal antibodies (50 μL/well) for 1 hour at 37° C. The wells were then washed three times with PBS-T and developed with the chromogenic substrate ABTS (100 μL/well). Absorbance was measured at 410 nm in microplate reader (BioRad, Hercules, Calif.).
The percentage breaking activity is calculated by the following formula: 100×[(A410, PBS control)−(A410, AGE-breaker compound)]/[A410, PBS control].

[2] = test system: IgG-AGE cross-linked to the rat RBC surface; assay: Cleavage of IgG-AGE cross-linked to RBC surface, anti-IgG ELISA; assay type: cell-based; settings: RBCs of diabetic rats vs diabetic and non-diabetic controls; FIG. 6
Method: IgG cross-linked to the RBC surface was determined with an anti-IgG by a modification of the method described by Vasan et al. (1996). Briefly, heparinized blood was drawn from the tail vein in capillary tubes, inverted several times, then centrifuged at 200×g for five minutes at room temperature. RBCs were washed three times with PBS in 0.5 mL microfuge tubes and packed with a final centrifugation at 500×g. Red cells were diluted at 1:10 to 1:100 in Dulbecco's Modified Eagle's Medium that is normal for glucose. Experimental compounds were added at desired concentrations and incubated at 37° C. in a CO2 incubator for 24 hours in sterile conditions. Control incubations contained RBCs and PBS alone. After incubation, RBCs were washed three times in PBS and packed cells diluted 1:200 to 1:500. The RBC suspensions were gently vortexed and 50 μL aliquots added to 450 μL of a polyclonal rabbit anti-rat IgG conjugated to alkaline phosphatase (diluted 1:2500 in PBS). […] The RBCs were pelleted and the supernatant was read at […] in either a conventional spectrometer or an ELISA reader. Blank readings were obtained by incubating tubes without cells.

[3] = target: T2, native and glycated β-amyloid (1-40) peptide fibrils (Homo sapiens, UniProt P05067); assay: Thioflavine T fluorescence assay of β-amyloid fibril disaggregation; assay type: biochemical; settings: ThT assay
T2 construct: β-amyloid (1-40) peptide was from Bachem (Torrance, Calif.); purchased Bachem (Torrance, Calif.)
Method: Both dyes have been adapted to in vitro measurements of amyloid fibril formation and quantification. ThT binding to β-amyloids gives rise to a large fluorescence excitation spectral shift that allows selective excitation of the amyloid fibril bound ThT (Tjernberg et al., 1999). In the present study, we have investigated the disaggregation of both native (unmodified) and glycated β-amyloid (1-40) peptide by the AGE-breaker compounds introduced here. Stock solutions of peptide were dissolved in deionized water at a concentration of 1 mg/mL. For AGE crosslinking experiments, they were incubated in 4 mL polypropylene tubes at a concentration of 250 μg/mL (60 μM) and 50 mM glucose in 50 mM sodium phosphate buffer, pH 7.9, at 50° C. in the dark for 5 days. Sodium azide (0.01% w/v) was added to prevent microbiological growth. In long-term experiments, water was added every 12 hours to compensate for solvent evaporation. AGE-β-amyloid was then dialyzed against double-distilled water using Spectra/Por CE dialysis membrane (molecular mass cut off: 1000 Da), and then freeze dried. Two sets of experiments were prepared for each compound. Solutions for the first experiment contained 100 μM of β-amyloid in 50 mM Tris-buffered saline (TBS) pH 7.4, and […] (the drugs were dissolved in DMSO and the solutions were prepared for dilution from this DMSO stock). The second set contained 100 μM of β-amyloid in TBS and 100 μM of one compound. The reactions were incubated at 37° C. for 24 hours without stirring (stagnant assay). Control experiments were prepared accordingly except that no AGE-breaker compounds were added to the tubes. The same protocol was used for both native and glycated β-amyloid peptides. The incubated samples are vortexed and 40 μL aliquots are withdrawn and mixed with 960 μL of 10 μM ThT in 10 mM sodium phosphate-buffer. Fluorescence measurements were taken with excitation of 437 nm and emission at 485 nm. Slit widths are set to 5 nm.

[4] = test system: crosslinks formed in skin and tail collagen of diabetic rats; settings: cited from earlier work
[5] = target: T3, β-amyloid fibrils (Homo sapiens, UniProt P05067); settings: 20 mM; cited from earlier work
T3 construct: β-AP (amino acids 1-40, from Bachem, Torrance, Calif.)
T3 sequence (P05067 672-711): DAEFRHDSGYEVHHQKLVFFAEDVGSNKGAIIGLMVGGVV

T1 sequence (P02454 152-1207 limits assumed): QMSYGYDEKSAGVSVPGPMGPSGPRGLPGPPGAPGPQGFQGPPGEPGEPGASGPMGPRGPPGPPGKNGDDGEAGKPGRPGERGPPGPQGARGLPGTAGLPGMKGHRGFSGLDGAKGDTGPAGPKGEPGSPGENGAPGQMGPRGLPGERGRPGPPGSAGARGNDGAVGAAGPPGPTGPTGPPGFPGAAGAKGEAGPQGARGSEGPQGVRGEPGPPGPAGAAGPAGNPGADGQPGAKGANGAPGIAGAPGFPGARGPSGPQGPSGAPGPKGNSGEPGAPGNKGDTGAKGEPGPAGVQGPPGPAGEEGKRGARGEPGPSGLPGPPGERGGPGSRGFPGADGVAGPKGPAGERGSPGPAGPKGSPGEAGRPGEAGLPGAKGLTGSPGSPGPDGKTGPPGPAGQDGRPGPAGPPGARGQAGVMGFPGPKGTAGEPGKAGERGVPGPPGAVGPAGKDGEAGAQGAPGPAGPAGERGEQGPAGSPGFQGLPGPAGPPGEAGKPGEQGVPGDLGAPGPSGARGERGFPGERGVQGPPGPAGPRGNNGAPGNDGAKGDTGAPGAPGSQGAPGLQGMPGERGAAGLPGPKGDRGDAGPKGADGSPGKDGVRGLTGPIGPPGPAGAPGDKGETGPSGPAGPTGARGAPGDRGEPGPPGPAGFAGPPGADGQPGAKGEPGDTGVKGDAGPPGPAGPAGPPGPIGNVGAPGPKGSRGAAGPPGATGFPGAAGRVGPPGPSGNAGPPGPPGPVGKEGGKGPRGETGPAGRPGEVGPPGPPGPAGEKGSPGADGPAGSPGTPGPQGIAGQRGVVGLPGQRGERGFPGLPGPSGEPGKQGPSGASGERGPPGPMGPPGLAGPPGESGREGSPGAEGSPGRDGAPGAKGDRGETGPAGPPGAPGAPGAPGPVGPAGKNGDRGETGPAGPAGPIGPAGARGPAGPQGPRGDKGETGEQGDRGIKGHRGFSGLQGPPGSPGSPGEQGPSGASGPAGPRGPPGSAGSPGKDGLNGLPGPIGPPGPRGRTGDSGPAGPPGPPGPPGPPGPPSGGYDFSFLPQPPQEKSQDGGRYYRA
T1 sequence (P02466 86-1125 limits assumed): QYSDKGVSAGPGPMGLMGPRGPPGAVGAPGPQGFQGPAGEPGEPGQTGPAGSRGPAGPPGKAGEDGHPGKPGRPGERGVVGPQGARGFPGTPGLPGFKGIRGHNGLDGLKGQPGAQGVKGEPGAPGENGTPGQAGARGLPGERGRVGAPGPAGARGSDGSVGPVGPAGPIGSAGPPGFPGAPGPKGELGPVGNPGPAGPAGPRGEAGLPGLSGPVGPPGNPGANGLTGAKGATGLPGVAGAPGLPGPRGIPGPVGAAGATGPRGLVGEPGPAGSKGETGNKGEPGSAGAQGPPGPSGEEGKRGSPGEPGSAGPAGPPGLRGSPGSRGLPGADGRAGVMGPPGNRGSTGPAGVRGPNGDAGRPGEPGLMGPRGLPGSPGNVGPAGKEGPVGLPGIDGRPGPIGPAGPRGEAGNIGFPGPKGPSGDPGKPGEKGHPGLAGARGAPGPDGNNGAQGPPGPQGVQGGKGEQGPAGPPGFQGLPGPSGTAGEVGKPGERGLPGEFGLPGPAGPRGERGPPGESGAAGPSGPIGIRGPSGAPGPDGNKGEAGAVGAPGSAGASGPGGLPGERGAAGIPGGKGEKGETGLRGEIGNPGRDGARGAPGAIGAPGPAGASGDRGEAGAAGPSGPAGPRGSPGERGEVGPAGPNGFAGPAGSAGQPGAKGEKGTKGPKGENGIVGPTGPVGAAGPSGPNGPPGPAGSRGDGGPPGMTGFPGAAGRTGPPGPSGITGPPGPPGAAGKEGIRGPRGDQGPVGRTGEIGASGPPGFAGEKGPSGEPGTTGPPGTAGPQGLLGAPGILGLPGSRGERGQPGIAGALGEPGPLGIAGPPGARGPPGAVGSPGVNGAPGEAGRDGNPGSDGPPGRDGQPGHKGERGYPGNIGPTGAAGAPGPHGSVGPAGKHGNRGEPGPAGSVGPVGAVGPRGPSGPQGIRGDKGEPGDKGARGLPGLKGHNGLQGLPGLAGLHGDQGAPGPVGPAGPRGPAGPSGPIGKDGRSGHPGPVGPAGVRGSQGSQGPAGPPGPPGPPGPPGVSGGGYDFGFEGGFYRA
T2 sequence (P05067 672-711): as the sequence (P05067 672-711) above

In the case of “1,4-benzene-bis[4-methyleneaminophenoxyisobutyric acid] [LR102]”, the “AGE-breaking activity (cleavage of cross-linked collagen-AGE-BSA), in words” value [1] is reported as “very effective AGE-breakers”, the “Concentration dependence of AGE-BSA-collagen crosslink breaking, in words” value [1] is reported as “more potent at lower concentrations” and the “Overall AGE-breaking property, in words” value ([1]; overall judgement of the patent's tests) is reported as “most effective AGE-breakers”. For the same compound, the “IgG-AGE bound to RBC surface, in words” value [2] was “almost the same IgG-AGE content as that of non-diabetic control” and the “Disaggregation of fibrillar forms of native and glycated β-amyloid, in words” value [3] was “clearly confirmed the efficacy”.
In the case of Cc1sc[n+](CC(=O)c2ccccc2)c1C.[Cl-] [ALT711], the “Cleaving crosslinks formed in skin and tail collagen, in words” value [4] is given as “not effective”.
In the case of O=C(C[n+]1ccsc1)c1ccccc1.[Br-] [PTB, N-phenacylthiazolium bromide], the “Disaggregation of β-amyloid fibrils, in words” value [5] is given as “disaggregates β-amyloid fibrils”.
For “methylene bis [LR90, methylene bis [4,4′-(2-chlorophenylureidophenoxyisobutyric acid)]]”, the “AGE-breaking activity (cleavage of cross-linked collagen-AGE-BSA), in words” value [1] was “very effective AGE-breakers”, the “Concentration dependence of AGE-BSA-collagen crosslink breaking, in words” value [1] was “more effective breakers at higher concentrations” and the “Disaggregation of fibrillar forms of native and glycated β-amyloid, in words” value [3] was “clearly confirmed the efficacy”.
